Laboratory results: PubChem BioAssay AID1259407 (Chemical Carcinogenesis Research Information System (CCRIS), 2018)
Calls of active or inactive are those of the source. No rule for the calls is given here.

System: CCRIS mutagenicity, Ames/micronucleus/aberration tests
Assay: CCRIS mutagenicity studies
[1] = Test System: AMES SALMONELLA TYPHIMURIUM, Strain/Indicator: TA98, Metabolic Activation: NONE, Method: STANDARD PLATE
[2] = Test System: AMES SALMONELLA TYPHIMURIUM, Strain/Indicator: TA98, Metabolic Activation: RAT, LIVER, S-9, AROCLOR 1254, Method: STANDARD PLATE
[3] = Test System: AMES SALMONELLA TYPHIMURIUM, Strain/Indicator: TA100, Metabolic Activation: NONE, Method: STANDARD PLATE
[4] = Test System: AMES SALMONELLA TYPHIMURIUM, Strain/Indicator: TA100, Metabolic Activation: RAT, LIVER, S-9, AROCLOR 1254, Method: STANDARD PLATE
[5] = Test System: AMES SALMONELLA TYPHIMURIUM, Strain/Indicator: TA1535, Metabolic Activation: NONE, Method: STANDARD PLATE
[6] = Test System: AMES SALMONELLA TYPHIMURIUM, Strain/Indicator: TA1535, Metabolic Activation: RAT, LIVER, S-9, AROCLOR 1254, Method: STANDARD PLATE
[7] = Test System: AMES SALMONELLA TYPHIMURIUM, Strain/Indicator: TA1537, Metabolic Activation: NONE, Method: STANDARD PLATE
[8] = Test System: AMES SALMONELLA TYPHIMURIUM, Strain/Indicator: TA1537, Metabolic Activation: RAT, LIVER, S-9, AROCLOR 1254, Method: STANDARD PLATE
[9] = Test System: AMES SALMONELLA TYPHIMURIUM, Strain/Indicator: TA1538, Metabolic Activation: NONE, Method: STANDARD PLATE
[10] = Test System: AMES SALMONELLA TYPHIMURIUM, Strain/Indicator: TA1538, Metabolic Activation: RAT, LIVER, S-9, AROCLOR 1254, Method: STANDARD PLATE
[11] = Test System: MOUSE LYMPHOMA, Strain/Indicator: L5178Y (TK+/TK-), Metabolic Activation: NONE, Method: SUSPENSION/PLATE
[12] = Test System: AMES SALMONELLA TYPHIMURIUM, Strain/Indicator: TA98, Metabolic Activation: HAMSTER, LIVER, S-9, AROCLOR 1254, Method: STANDARD PLATE
[13] = Test System: AMES SALMONELLA TYPHIMURIUM, Strain/Indicator: TA100, Metabolic Activation: HAMSTER, LIVER, S-9, AROCLOR 1254, Method: STANDARD PLATE
[14] = Test System: AMES SALMONELLA TYPHIMURIUM, Strain/Indicator: TA100, Metabolic Activation: NONE, Method: PREINCUBATION
[15] = Test System: AMES SALMONELLA TYPHIMURIUM, Strain/Indicator: TA1535, Metabolic Activation: HAMSTER, LIVER, S-9, AROCLOR 1254, Method: STANDARD PLATE
[16] = Test System: AMES SALMONELLA TYPHIMURIUM, Strain/Indicator: TA1535, Metabolic Activation: NONE, Method: PREINCUBATION
[17] = Test System: AMES SALMONELLA TYPHIMURIUM, Strain/Indicator: TA1537, Metabolic Activation: HAMSTER, LIVER, S-9, AROCLOR 1254, Method: STANDARD PLATE
[18] = Test System: AMES SALMONELLA TYPHIMURIUM, Strain/Indicator: TA1538, Metabolic Activation: HAMSTER, LIVER, S-9, AROCLOR 1254, Method: STANDARD PLATE

| SMILES | mutagenic call [1] | mutagenic call [2] | mutagenic call [3] | mutagenic call [4] | mutagenic call [5] | mutagenic call [6] | mutagenic call [7] | mutagenic call [8] | mutagenic call [9] | mutagenic call [10] | mutagenic call [11] | mutagenic call [12] | mutagenic call [13] | mutagenic call [14] | mutagenic call [15] | mutagenic call [16] | mutagenic call [17] | mutagenic call [18] | further results |
| --- | --- | --- | --- | --- | --- | --- | --- | --- | --- | --- | --- | --- | --- | --- | --- | --- | --- | --- | --- |
| Cn1cnc2c1c(=O)[nH]c(=O)n2C | inactive; negative | inactive; negative | inactive; negative | inactive; negative | inactive; negative | inactive; negative | inactive; negative | inactive; negative | inactive; negative | inactive; negative | active; positive | – | – | – | – | – | – | – | mutagenic call (Test System: AMES SALMONELLA TYPHIMURIUM, Strain/Indicator: TA97A, Metabolic Activation: NONE, Method: STANDARD PLATE): inactive; negative; mutagenic call (Test System: AMES SALMONELLA TYPHIMURIUM, Strain/Indicator: TA97A, Metabolic Activation: RAT LIVER S-9, Method: STANDARD PLATE): inactive; negative; mutagenic call (Test System: AMES SALMONELLA TYPHIMURIUM, Strain/Indicator: TA100, Metabolic Activation: RAT LIVER S-9, Method: STANDARD PLATE): inactive; negative; mutagenic call (Test System: AMES SALMONELLA TYPHIMURIUM, Strain/Indicator: TA102, Metabolic Activation: NONE, Method: STANDARD PLATE): inactive; negative; mutagenic call (Test System: AMES SALMONELLA TYPHIMURIUM, Strain/Indicator: TA102, Metabolic Activation: RAT LIVER S-9, Method: STANDARD PLATE): inactive; negative; mutagenic call (Test System: AMES SALMONELLA TYPHIMURIUM, Strain/Indicator: TA104, Metabolic Activation: NONE, Method: STANDARD PLATE): inactive; negative; mutagenic call (Test System: AMES SALMONELLA TYPHIMURIUM, Strain/Indicator: TA104, Metabolic Activation: RAT LIVER S-9, Method: STANDARD PLATE): inactive; negative; mutagenic call (Test System: MOUSE LYMPHOMA, Strain/Indicator: L5178Y (TK+/TK-), Metabolic Activation: RAT, LIVER, S-9, AROCLOR 1254, Method: STANDARD PLATE): active; positive |
| Clc1nc2ccccc2nc1Cl | inactive; negative | inactive; negative | inactive; negative | inactive; negative | inactive; negative | inactive; negative | inactive; negative | inactive; negative | inactive; negative | inactive; negative | active; positive. reevaluation of results: equivocal | inactive; negative | inactive; negative | inactive; negative | inactive; negative | inactive; negative | inactive; negative | inactive; negative | mutagenic call (Test System: AMES SALMONELLA TYPHIMURIUM, Strain/Indicator: TA98, Metabolic Activation: HAMSTER, LIVER, S-9, AROCLOR 1254 (10%), Method: PREINCUBATION): inactive; negative; mutagenic call (Test System: AMES SALMONELLA TYPHIMURIUM, Strain/Indicator: TA98, Metabolic Activation: NONE, Method: PREINCUBATION): inactive; negative; mutagenic call (Test System: AMES SALMONELLA TYPHIMURIUM, Strain/Indicator: TA98, Metabolic Activation: RAT, LIVER, S-9, AROCLOR 1254 (10%), Method: PREINCUBATION): inactive; negative; mutagenic call (Test System: AMES SALMONELLA TYPHIMURIUM, Strain/Indicator: TA100, Metabolic Activation: HAMSTER, LIVER, S-9, AROCLOR 1254 (10%), Method: PREINCUBATION): inactive; negative; mutagenic call (Test System: AMES SALMONELLA TYPHIMURIUM, Strain/Indicator: TA100, Metabolic Activation: RAT, LIVER, S-9, AROCLOR 1254 (10%), Method: PREINCUBATION): inactive; negative; mutagenic call (Test System: AMES SALMONELLA TYPHIMURIUM, Strain/Indicator: TA1535, Metabolic Activation: HAMSTER, LIVER, S-9, AROCLOR 1254 (10%), Method: PREINCUBATION): inactive; negative; mutagenic call (Test System: AMES SALMONELLA TYPHIMURIUM, Strain/Indicator: TA1535, Metabolic Activation: RAT, LIVER, S-9, AROCLOR 1254 (10%), Method: PREINCUBATION): inactive; negative; mutagenic call (Test System: AMES SALMONELLA TYPHIMURIUM, Strain/Indicator: TA1537, Metabolic Activation: HAMSTER, LIVER, S-9, AROCLOR 1254 (10%), Method: PREINCUBATION): inactive; negative; mutagenic call (Test System: AMES SALMONELLA TYPHIMURIUM, Strain/Indicator: TA1537, Metabolic Activation: NONE, Method: PREINCUBATION): inactive; negative; mutagenic call (Test System: AMES SALMONELLA TYPHIMURIUM, Strain/Indicator: TA1537, Metabolic Activation: RAT, LIVER, S-9, AROCLOR 1254 (10%), Method: PREINCUBATION): inactive; negative; mutagenic call (Test System: MOUSE LYMPHOMA, Strain/Indicator: L5178Y (TK+/TK-), Metabolic Activation: RAT, LIVER, S-9, AROCLOR 1254, Method: SUSPENSION/PLATE): active; positive. reevaluation of results: positive |
| O=c1oc2cc(O)ccc2c2oc3cc(O)ccc3c12 | inactive; negative | inactive; negative | inactive; negative | inactive; negative | inactive; negative | inactive; negative | inactive; negative | inactive; negative | inactive; negative | inactive; negative | – | inactive; negative | inactive; negative | – | inactive; negative | – | inactive; negative | inactive; negative | mutagenic call (End Point: IN VITRO CHROMOSOMAL ABERRATIONS, Test System: HUMAN PERIPHERAL LYMPHOCYTES, Metabolic Activation: NONE): active; positive (structural changes); mutagenic call (Test System: Ames Salmonella typhimurium, Strain/Indicator: TA102, Metabolic Activation: None, Method: Preincubation): inactive; negative; mutagenic call (Test System: Ames Salmonella typhimurium, Strain/Indicator: TA102, Metabolic Activation: Rat, Liver, S-9, Aroclor 1254 in 0.154 M KCl, Method: Preincubation): inactive; negative; mutagenic call (Test System: CHINESE HAMSTER LUNG CELLS, Strain/Indicator: V-79 (HPRT)/6-THIOGUANINE, Metabolic Activation: NONE): active; positive; mutagenic call (Test System: HUMAN LYMPHOBLASTOID CELLS, Strain/Indicator: AHH-1 CELLS(TK+/TK-), Metabolic Activation: NONE, Method: SUSPENSION/PLATE): active; positive; mutagenic call (Test System: SYRIAN HAMSTER EMBRYO CELLS, Strain/Indicator: HPRT/6-THIOGUANINE, Metabolic Activation: NONE, Method: PLATE): active; positive |
| NC(=O)N(CCC(=O)O)N=O | – | – | – | – | – | – | – | – | – | – | – | – | – | active; positive | – | active; positive | – | – | mutagenic call (Test System: E. COLI B, Strain/Indicator: H/R30R, Metabolic Activation: NONE): active; positive; mutagenic call (Test System: E. COLI B, Strain/Indicator: HS30R, Metabolic Activation: NONE): active; positive |
| Oc1cc(Cl)c(Cl)c(Cl)c1O | – | – | – | – | – | – | – | – | – | – | – | – | – | – | – | – | – | – | mutagenic call (Test System: CHINESE HAMSTER V-79, Strain/Indicator: V-79/6-THIOGUANINE, Metabolic Activation: NONE, Method: STANDARD PLATE): inactive; negative |
